Laboratory results: US10864168B2, “Bioactive delivery vehicles” (The Regents of the University of California, priority 2014, dated 2020)

Tests used:
L. starkeyi (51-55) = test: Encapsulation of curcumin into cultured yeast, lipogenesis induced or suppressed; type: physicochemical, Lipomyces starkeyi; conditions: vacuum infused, 35% ethanol
Source text: Increased lipid content both improves the relative encapsulation efficiency of hydrophobic bioactives and the oxidative stability of encapsulated bioactives. In this aim, three strains (Saccharomyces cerevisiae, Candida utilis, Phaffia rhodozyma) of yeast with high and low lipid content (high lipid ascomycete and Saccharomyces cerevisiae (low lipid)) are selected. Similarly, and two strains of algal cells are selected (Chlorella minutissima (UTEX 2341), Chlorella sorokiniana (UTEX 2805). The yeast and algal cells are cultured to achieve varying levels of lipid content by influencing the extracellular nutrients, e.g. in the case of algal cells, deprivation of nitrogen in extracellular media can shift the metabolism to generate lipids, with varying levels of nitrogen, intracellular lipid content is modulated. The intracellular lipids are extracted from freeze dried yeast and algal cells and measured using established gravimetric methods. To induce lipogenesis, 5 mL of the pre-culture are transferred into a 500 mL baffled conical flask with 95 mL of media A (50 g/L glucose, 1.5 g/L yeast extract, 0.5 g/L NH4Cl, 7.0 g/L KH2PO4, 2.5 g/L Na2HPO4.2H2O, 1.5 g/L MgSO4.7H2O, 0.08 g/L FeCl3.6H2O, 10.0 mg/L ZnSO4.7H2O, 0.07 mg/L MnSO4.H2O, 0.1 mg/L CuSO4, 0.063 mg/L Co(NO3)2) and closed with a foam cap. […]

E. coli (BL21) = test: Encapsulation efficiency into bacteria by vacuum infusion; type: physicochemical; conditions: vacuum infused, 35% ethanol
Chlorella sorokiniana = test: Encapsulation of curcumin in algae cells using pressure assisted encapsulation; type: physicochemical; conditions: vacuum sealing, 5% ethanol, 50 mg cells
Source text: (§1) Briefly, 1 gm of yeast or algal cells pellet is suspended in the 35% ethanolic solution of the selected bioactive compound. […] We have determined the % ethanol to achieve sufficient encapsulation of the selected encapsulated bioactive compounds using both the vacuum and high pressure assisted encapsulation process. Yeast or algal cell samples suspended in the ethanolic solution with the bioactive compound are sealed in boilable vacuum bags (Prime Source) at 99% vacuum (Ultravac 250, Koch Equipment LLC). […] The sealed samples are covered with aluminum foil to prevent any photo-degradation of the bioactives and incubated at room temperature (25° C.) for 10 minutes. Samples are emptied into 50 mL centrifuge tubes, centrifuged at 2200 rpm for 10 minutes to pellet the cells and the pelleted cells are washed twice with ethanolic solution (35%) and then five times with excess water to remove unencapsulated bioactives. Cells are sonicated to disrupt the cellular structure. […] The concentration of bioactive compound dissolved in the organic phase is measured using UV-vis spectrophotometer. […] The encapsulation efficiency is determined as follows: [formula] where CE is the mass of extracted bioactive from the cells after encapsulation and CT is the amount of bioactive initially added to the cells. […]

Chlorella minutissima = test: as above; type: physicochemical; conditions: vacuum sealing, 5% ethanol, 100 mg cells
Source text: as §1

L. casei (S1) = test: Encapsulation efficiency into bacteria by vacuum infusion; type: physicochemical, Lactobacillus casei; conditions: vacuum infused, 35% ethanol
porcine mouth mucosa = test: Curcumin release and diffusion in porcine mouth mucosa from yeast encapsulation system
Description: Curcumin release and diffusion in porcine mouth mucosa from yeast encapsulation system was evaluated. Yeast microcapsules loaded with curcumin were topically applied on the porcine oral cavity tissue. After incubations for corresponding time periods, curcumin permeation was detected by imaging the tissue cross-sections. Both integrated pixel intensity and penetration distance from skin top surface were calculated. The results are depicted in FIG. 18. […] Furthermore, the yeast carriers can be engineered to act as a programmable microcarrier system that can provide controlled or triggered release of bioactive components in oral mucosa. This engineering can be accomplished by physical, chemical and/or genetic modification of the cell wall and cytoplasmic composition of yeast cells including modification of their lipid content.

Mass of Encapsulated Bioactive in Yeast (L. starkeyi (51-55); lipogenesis Induced): 0.559 mg/g
Mass of Encapsulated Bioactive in Yeast (L. starkeyi (51-55); lipogenesis Suppressed): 0.466 mg/g
Mass of Encapsulated Bioactive in Bacteria (E. coli (BL21)): 0.489 mg/g
Mass of Encapsulated Bioactive in Algae (Chlorella sorokiniana): 0.355 mg/g
Mass of Encapsulated Bioactive in Algae (Chlorella minutissima): 0.184 mg/g
Mass of Encapsulated Bioactive in Bacteria (L. casei (S1)): 1.041 mg/g
integrity of the compound in tissue (porcine mouth mucosa; after 12 h): remained intact
SMILES: COc1cc(/C=C/C(=O)CC(=O)/C=C/c2ccc(O)c(OC)c2)ccc1O [Curcumin, curcumin]
diffusion into mouth mucosa tissue (porcine mouth mucosa; yeast microcapsules loaded with curcumin, topically applied): diffused into mouth mucosa tissue with a strong time-dependent manner
